Tests used:
[1] = test system: MRC-5 (lung fibroblast) cells; assay: Cell Titer Glo cell viability assay, MRC-5 non-cancerous control; assay type: cell-based; details: Homo sapiens, MRC5, MRC-5 non-cancerous fibroblasts, 48 h, 25-300 µM, triplicate, means
Method: (§1) To determine the effect of N-acyl hydrazones and 2,5 substituted 1,3,4-oxadiazole derivatives, a dose-response curve was produced for each and every molecule based on the viability of A549 (lung carcinoma), PC-3 (prostate adenocarcinoma), and MDA-MB-231(breast adenocarcinoma) cancerous cell lines by using the Cell Titer Glo assay. The MRC-5 (lung fibroblast) cell line was used as the non-cancerous control group. For 48 h, the cytotoxic effects of novel derivatives on all of the cell lines were investigated in a dose-dependent manner.
(§2) In this study, four adherent cell lines were used: three from different cancer types and one from a regular fibroblast. The cancerous cells were human breast carcinoma (MDA-MB-231, ATCC code: HTB-26), human prostatic carcinoma (PC-3, ATCC code: CRL-1435), and human lung cancer epithelial cells (A549, ATCC code: CCL-185), while the fibroblasts in the control group were human fetal lung (MRC-5, ATCC code: CCL-171) cells. All cells were checked every few weeks for various sources of contamination.
(§3) […], MRC-5, and PC-3 cell lines were cultured in T75 flasks with high glucose DMEM medium (Pan Biotech, Aidenbach, Germany), and A549 cells were cultured with RPMI-1640 (Pan Biotech) containing 10% fetal bovine serum (Gibco, Waltham, MA, USA), 1% penicillin-streptomycin (Gibco), and 1% L-glutamine (Gibco) at 37 °C with 5% CO2. All the cells were removed from the flask with Trypsin/EDTA 0.25% (Gibco) when they reached 80% density.
(§4) To test the effect of different doses on cells, all types of cells were seeded into 96-well plates at a density of eight thousand cells in 100 µL volume per well. Cells were incubated at 37 °C with 5% CO2 for […]. After 24 h in the incubator, the medium on top of each well was discharged. All of the cells were treated with 25, 50, 100, 200, or 300 µM of fifteen N-acyl hydrazones and twelve 2,5-substituted 1,3,4-oxadiazole in a dose-increasing manner. Molecules were studied in triplicate for each concentration. To assess the viability of non-treated cells, a control group was placed in the setup with only cells and DMSO control treatments without any candidate molecules introduced. Plates were incubated for 48 h, and Cell Titer Glo reagent (Promega) was added on top of each well. Cells were then evaluated in terms of viability with the Cell Titer-Glo Luminescent Cell Viability Assay. Luminescence signals were detected with the SpectraMax i3x Multimode Detection Platform to obtain the cell viability percentages.

[2] = test system: MDA-MB-231 (breast adenocarcinoma) cells; assay: Cell Titer Glo cell viability assay, MDA-MB-231; assay type: cell-based, human; details: MDA-MB-231, 48 h, 25-300 µM, triplicate, means
Method: as §1, §2, §3, §4

[3] = test system: A549 (lung carcinoma) cells; assay: Cell Titer Glo cell viability assay, A549; assay type: cell-based; details: Homo sapiens, A549, 48 h, 25-300 µM, triplicate, means
Method: as §1, §2, §3, §4

[4] = test system: PC-3 (prostate adenocarcinoma) cells; assay: Cell Titer Glo cell viability assay, PC-3; assay type: cell-based, human; details: PC-3, 48 h, 25-300 µM, triplicate, means
Method: as §1, §2, §3, §4

[5] = test system: A-549 cells; assay: Scratch assay (cell migration), A549; assay type: cell-based, human; details: 55 µM 1d, 15 µM 1e, 15 µM 2a, 0, 24, 48 h
Method: (§5) The dosages for MDA-MB-231 were 40 µM for 1d, 120 µM for 1e, and 30 µM for 2a. The dosages for A-549 were 55 µM for 1d, 15 µM for 1e, and 15 µM for 2a. Three photos were taken: one immediately after the application, one 24 h later, and one 48 h later. The images of each time stamp for all three molecules can be seen in Figure 4 for the A549 cell line and Figure 5 for the MDA-MB-231 cell line.
(§6) To make comparisons, each application was performed in triplicate for all three molecules; the averages and standard deviations were calculated, and the p values were calculated by considering the sample sizes.
(§7) MDA-MB-231 and A-549 cells were seeded for the scratch assay. A total of 100.000 cells were cultured in 1.5 mL complete medium per well on a 6-well plate, as detailed above. The 6-well plates were then incubated for 24 h at 37 °C. After 24 h, accumulated cells were scraped out with the tip of a 200 µL pipette. After discarding the media on top of the cells, the cells were treated for 48 h with three molecules: 1d, 1e, and 2a.
(§8) The dosages for the MDA-MB-231 cell line were 40 µM for 1d, 120 µM for 1e, and 30 µM for 2a. The dosages for the A-549 cell line were 55 µM for 1d, 15 µM for 1e, and 15 µM for 2a.
(§9) The cell states were evaluated under the microscope, and markings were made to obtain photos from the same location during the follow-up. Images of the determined reference points were captured under the microscope immediately after treatment, 24 h later, and 48 h later.

[6] = test system: MDA-MB-231 cells; assay: Scratch assay (cell migration), MDA-MB-231; assay type: cell-based, human; details: 40 µM 1d, 120 µM 1e, 30 µM 2a, 0, 24, 48 h
Method: as §5, §6, §7, §8, §9

IC50 ([2]; Homo sapiens) | IC50 [3] | IC50 ([4]; Homo sapiens, 48 h) | IC50 [2] | IC50 [4] | SMILES | IC50 [1] | Antimetastatic effect / wound healing rate, scratch assay [5] | Antimetastatic effect / wound healing rate, scratch assay [6]
46.9 µM | 152 µM | 82.2 µM |  |  | Clc1ccc(-c2nnc(-c3ccccc3Oc3ccccc3)o2)cc1 [2b] | 36 µM |  | 
108 µM | 137 µM | 124 µM |  |  | Clc1ccc(Oc2ccccc2-c2nnc(-c3cccnc3)o2)cc1 [2m] | 124 µM |  | 
32.7 µM | 122 µM | 46.4 µM |  |  | O=C(N/N=C/c1ccccc1Oc1ccc(Cl)cc1)c1ccccc1 [1k] | 66.9 µM |  | 
79.2 µM | 90 µM | 65.8 µM |  |  | Clc1ccc(Oc2ccccc2-c2nnc(-c3ccccc3)o2)cc1 [2k] | 58.3 µM |  | 
38.2 µM | 78.6 µM | 78.2 µM |  |  | N#Cc1ccc(Oc2ccccc2-c2nnc(-c3cccnc3)o2)cc1 [2h] | 23.1 µM |  | 
55.7 µM | 64.8 µM | 127 µM |  |  | N#Cc1ccc(Oc2ccccc2-c2nnc(-c3ccc(Cl)cc3)o2)cc1 [2g] | 16 µM |  | 
23.1 µM | 72.9 µM | 41.4 µM |  |  | N#Cc1ccc(Oc2ccccc2-c2nnc(-c3ccco3)o2)cc1 [2i] | 23.1 µM |  | 
78.6 µM | 102 µM | 54.3 µM |  |  | c1ccc(Oc2ccccc2-c2nnc(-c3ccco3)o2)cc1 [2d] | 40.1 µM |  | 
100 µM | 89.7 µM | 27 µM |  |  | Cc1nnsc1C(=O)N/N=C/c1ccccc1Oc1ccc(Cl)cc1 [1o] | 7.78 µM |  | 
138 µM | 72.8 µM | 25.3 µM |  |  | O=C(N/N=C/c1ccccc1Oc1ccccc1)c1ccc(Cl)cc1 [1b] | 24.4 µM |  | 
77.2 µM | 36.9 µM | 65.9 µM |  |  | N#Cc1ccc(Oc2ccccc2/C=N/NC(=O)c2ccccc2)cc1 [1f] | 56.8 µM |  | 
108 µM | 13.4 µM | 18.1 µM |  |  | Cc1nnsc1C(=O)N/N=C/c1ccccc1Oc1ccccc1 [1e] | 87 µM | did not show a significant antimetastatic effect | did not show a significant antimetastatic effect
77.7 µM | 39.4 µM | 30.2 µM |  |  | O=C(N/N=C/c1ccccc1Oc1ccc(Cl)cc1)c1ccc(Cl)cc1 [1l] | 14.6 µM |  | 
65.8 µM | 73 µM | 78.3 µM |  |  | N#Cc1ccc(Oc2ccccc2/C=N/NC(=O)c2cccnc2)cc1 [1h] | 66.9 µM |  | 
25.9 µM | 26.6 µM | 18.4 µM |  |  | Cc1nnsc1C(=O)N/N=C/c1ccccc1Oc1ccc(C#N)cc1 [1j] | 37.1 µM |  | 
50.8 µM | 208 µM | 86 µM |  |  | O=C(N/N=C/c1ccccc1Oc1ccccc1)c1cccnc1 [1c] | 43.5 µM |  | 
31.5 µM | 49.8 µM | 9.39 µM | 31.5 µM | 9.39 µM | O=C(N/N=C/c1ccccc1Oc1ccccc1)c1ccco1 [1d] | 44.7 µM | did not show a significant antimetastatic effect | did not show a significant antimetastatic effect
53 µM | 28.7 µM | 47.8 µM |  |  | O=C(N/N=C/c1ccccc1Oc1ccccc1)c1ccccc1 [1a] | 16.9 µM |  | 
20.7 µM | 208 µM | 84.6 µM |  |  | N#Cc1ccc(Oc2ccccc2/C=N/NC(=O)c2ccco2)cc1 [1i] | 31.7 µM |  | 
37.9 µM | 39.4 µM | 30.4 µM |  |  | O=C(N/N=C/c1ccccc1Oc1ccc(Cl)cc1)c1ccco1 [1n] | 50.6 µM |  | 
42.6 µM | 109 µM | 121 µM |  |  | c1ccc(Oc2ccccc2-c2nnc(-c3cccnc3)o2)cc1 [2c] | 12.8 µM |  | 
55.5 µM | 71.8 µM | 38.1 µM |  |  | O=C(N/N=C/c1ccccc1Oc1ccc(Cl)cc1)c1cccnc1 [1m] | 37.9 µM |  | 
24 µM | 29.3 µM | 66 µM |  |  | c1ccc(Oc2ccccc2-c2nnc(-c3ccccc3)o2)cc1 [2a] | 74.5 µM | did not show a significant antimetastatic effect | did not show a significant antimetastatic effect
30.4 µM | 28.8 µM | 25.6 µM |  |  | Clc1ccc(Oc2ccccc2-c2nnc(-c3ccco3)o2)cc1 [2n] | 35.6 µM |  | 
45.1 µM | 31.8 µM | 66.5 µM |  |  | N#Cc1ccc(Oc2ccccc2/C=N/NC(=O)c2ccc(Cl)cc2)cc1 [1g] | 62.8 µM |  | 
32.7 µM | 45.8 µM | 34.2 µM |  |  | N#Cc1ccc(Oc2ccccc2-c2nnc(-c3ccccc3)o2)cc1 [2f] | 141 µM |  | 
22.7 µM | 36.3 µM | 38.4 µM |  |  | Clc1ccc(Oc2ccccc2-c2nnc(-c3ccc(Cl)cc3)o2)cc1 [2l] | 51.9 µM |  | 

— PMC9657749, “Cytotoxic Activity and Docking Studies of 2-arenoxybenzaldehyde N-acyl Hydrazone and 1,3,4-Oxadiazole Derivatives against Various Cancer Cell Lines” (Molecules, 2022)
